We go through eleven compounds from PubChem BioAssay (NCI).

What all share (experiment): NCI-60 cell line screen, 48 h
Test [1] has as its system HCT-116 colon.
Test [2] relates to HCT-15 colon.
Test [3] relates to KM12 colon.
Test [4] deals with LOX IMVI melanoma.
Test [5] deals with MDA-MB-231 breast.
In test [6] the test system is NCI/ADR-RES ovarian.
The test system of test [7] is OVCAR-8 ovarian.
For test [8], the system named is SK-OV-3 ovarian.
The test system of test [9] is U251 CNS.
Test [10] relates to UO-31 renal.

Each structure is given as a SMILES string.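 Values below derive from 48-hour exposures of cells grown in 96-well plates, with endpoints linearly interpolated between the two concentrations bracketing the appropriate inhibition level. GI50 = concentration required for 50% inhibition of growth. TGI denotes the concentration required for complete inhibition of growth.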 Some results are limits rather than exact numbers.

As for `O=C(O)CSC1=NCCN1`, the TGI in test [1], in test [2], in test [3], in test [4], in test [5] and in test [6] was above 100 µM throughout. The TGI in test [7], in test [8], in test [9] and in test [10] was above 100 µM each time.
As for `COc1ccc(Nc2nc3ccccc3nc2-c2cccs2)cc1OC`, the TGI in test [1], in test [2], in [3], in test [4], in test [5] and in [6] was above 10 µM in each case. The TGI in test [7], in [8], in [9] and in test [10] was above 10 µM throughout.
`c1ccc(C/C(=N\Nc2nc3ccccc3[nH]2)c2ccccn2)cc1`: the TGI turned out to be 5.18 µM in test [1]; 15.6 µM in test [2]; 15.4 µM in [3]; 8.1 µM in test [4]; 13.4 µM in test [5]; 0.0936 µM in test [6]. Besides, the TGI in test [7] was found to be 2.08 µM; in [8], 0.413 µM; in [9] it was 12.3 µM; in test [10] it was 1.88 µM.
For the compound `O=S(=O)(O)c1cc(O)c(N=NC2S(=O)(=O)OCCOS2(=O)=O)c2ccccc12`, the TGI in test [1], in test [2], in test [3], in test [4], in test [5] and in [6] was above 100 µM each time. For the same compound, the TGI in [7], in [8], in test [9] and in [10] was above 100 µM throughout.
As to `Nc1nc(N)c2cc(-c3cc4ccccc4[nH]3)ccc2n1`, the TGI is above 100 µM in test [1]; 55 µM in test [2]; 43.5 µM in test [3]; 36.3 µM in [4]; 39.3 µM in [5]; above 100 µM in [6]. For the same compound, the TGI in test [7] is above 100 µM; in [8], above 100 µM; in [9], above 100 µM; in test [10], 32.9 µM.
With `O=C1C(NS(=O)(=O)c2ccccc2)=C(n2ccnc2)C(=O)c2ccccc21`, the TGI in [1], in test [2], in [3], in test [4], in [5] and in test [6] was above 100 µM each time. Besides, the TGI in [7], in [8], in test [9] and in test [10] was above 100 µM in each case.
Consider `COc1nc2ncc([C@@H](OC(C)=O)[C@@H](COC(C)=O)OC(C)=O)nc2c(=O)n1C`, for which the TGI in [1], in test [2], in [3], in test [4], in test [5] and in test [6] was above 100 µM in each case. In addition, the TGI in [7], in test [8], in test [9] and in test [10] was above 100 µM each time.
Regarding `COc1ccccc1C1C(C#N)=C(N)SC(N)=C1C#N`, the GI50 in test [1] was 43.8 µM; in test [2] it was 81.3 µM; in test [3] it was 37.8 µM; in test [4], 50.2 µM; in [5], 21.6 µM; in test [6], 43.9 µM. In addition, the GI50 in [7] is 90.4 µM; in [8] it was above 100 µM; in test [9], 54 µM; in test [10], 82.5 µM. In addition, the TGI is above 100 µM in test [1]; above 100 µM in [2]; above 100 µM in [3]; above 100 µM in [4]; 60.7 µM in [5]; above 100 µM in test [6]. Besides, the TGI in test [7], in test [8], in test [9] and in test [10] was above 100 µM in each case.
With `COc1cc2ncnc(Nc3cccc(Br)c3)c2cc1OC`, the TGI amounted to 39.3 µM in test [1]; 22.7 µM in test [2]; 16.1 µM in test [3]; 10.2 µM in test [4]; 21.5 µM in test [5]; 23.9 µM in [6]. Further, the TGI was above 35.1 µM in test [7], 19 µM in [8], above 46.7 µM in test [9] and 33.6 µM in test [10].
Take `CCN1CC2=C(OC(N)=C(C#N)C2c2ccc(Cl)cc2)/C(=C/c2ccc(Cl)cc2)C1` (stereo not given): the TGI in [1] is 54.9 µM; in [2] it was above 100 µM; in [3], above 100 µM; in [4], above 100 µM; in [5], 69.2 µM; in [6], above 100 µM. For the same compound, the TGI was above 100 µM in [7], 81.5 µM in [8], 47.2 µM in test [9] and above 100 µM in test [10].
In the case of `CN(C(=O)Cc1cc(Cl)c(Cl)cc1NC(=O)CCCN)[C@H]1CCCC[C@@H]1N1CCCC1`, the TGI in test [1] is above 100 µM; in [2] it was above 100 µM; in [3] it was 36.7 µM; in test [4], 39.3 µM; in test [5], 77.4 µM; in test [6], above 100 µM. For the same compound, the TGI was above 100 µM in test [7], above 100 µM in test [8], 35.3 µM in [9] and above 100 µM in [10].
